From patent US7626044B2, “Triptolide derivatives and their uses” (priority 2002, dated 2009)
In brackets after ≈: the same amount, converted by molar mass. Read-outs that look alike come from different tables or passages of the source.

Key:
[1] = test system: MCF-7 (human breast cancer cell); test: Tumor cell proliferation, MCF-7; assay type: cell-based; details: read-out: Inhibitory effect on tumor cell proliferation IC50
[2] = test system: Sac-stimulated lymphocytes; test: Cytokine production from Sac-stimulated lymphocytes (ELISA); assay type: cell-based, mouse; details: for IFN-γ production by lymphocytes stimulated with Sac, Mean Value: without drug 1302.6; for IL-12 production by lymphocytes stimulated with Sac: without drug 980; for IL-6 production by lymphocytes stimulated with Sac: without drug 1528; for IL-10 production by lymphocytes stimulated with Sac: without drug 2306; for TNF-α production by lymphocytes stimulated with Sac: without drug 4062
Method: Mice were sacrificed by cervical dislocation, and spleens were collected under sterile conditions then teased through a nylon mesh. Erythrocytes were lysed. Cells were washed and resuspended at 5×10^6/ml in RPMI-1640 media with 10% FBS.
1 ml of spleen cells were treated with or without ConA (5 μg/ml) or Sac (1:10000) and in the presence or absence of drugs in a final volume of 2 ml.
After 24 h culture at 37° C., 5% CO2 in a humidified incubator, cell-free supernatant was collected and frozen at −20° C. for ELISA.
TMB was taken as the enzyme substrate. The absorbance was measured at 450/570 nm by BioRad microplate reader. […]

[3] = test system: WI-38 (human lung fibroblasts); test: Cell proliferation, WI-38; assay type: cell-based; details: read-out: Inhibitory effect on tumor cell proliferation IC50
[4] = test system: mice; test: Acute toxicity (LD50) test in mice, oral; assay type: in vivo, mouse; details: single oral administration
Method: Mice were single administered with LLDT-8 by oral, and observed for clinical signs of toxicity immediately and the following 14 days. Necropsy was performed on all animals that died and on all survivors at the end of the 2-week study. Death was seen from the next day after treatment and reached a peak at the 2-3 day. […] There was no gender difference in survival.

[5] = test system: splenocytes (C57BL/6 responder, Balb/c stimulator); test: MLR response of C57BL/6 against Balb/c; assay type: cell-based, mouse
Method: C57BL/6 and Balb/c mice were sacrificed by cervical dislocation, and spleens were collected under sterile conditions then teased through a nylon mesh. Erythrocytes were lysed. Cells were washed and resuspended at 6×10^6/ml in RPMI-1640 media with 10% FBS.
Splenocytes from responder (C57BL/6) were mixed with stimulator (Balb/c), which was pretreated with ^60Co Gamma Ray irradiation (3000 rads).
Stimulator and responder cells were cultured in a 200 μl volume in 96-well plate in the presence of drugs or medium, at 37° C., 5% CO2 in a humidified incubator, for 3, 4, and 5 days, respectively. In the last 8 h of incubation, cells were treated with 25 μl (3.8×10^10 Bq) of [^3H]Thymidine.
At the end of incubation, pulsed cells were harvested on a glass filter using a cell harvester ([…]96®, TOMTEC) and allowed to dry. Incorporation of radioactive thymidine was determined by using liquid Scintillation and Luminescence Counters (MicroBeta Trilux®, PerkinElmer).

[6] = test system: collagen-induced arthritis; test: Collagen-induced arthritis in DBA/1 mice; assay type: in vivo, mouse
[7] = test system: anti-SRBC specific antibodies production by B lymphocytes; assay type: in vivo, mouse; details: ICR mice
[8] = test system: mice; test: Acute toxicity (LD50) test in mice, intraperitoneal injection; assay type: in vivo, mouse; details: single intraperitoneal injection
Method: Mice were single administered with LLDT-8 by intraperitoneal injection, and observed for clinical signs of toxicity immediately and the following 14 days. Necropsy was performed on all animals that died and on all survivors at the end of the 2-week study. Death was seen from the next day after treatment and reached a peak at the 2-4 day. All gross pathological changes should be recorded for each animal. There was no gender difference in survival.
LLDT-8 is much less toxic than its parent compound, […].

[9] = test system: C57BL/6 skin allograft on BALB/c mice; test: Murine skin allograft transplantation; assay type: in vivo, mouse; details: C57BL/6 skin to BALB/c mice; daily i.p.; preliminary results
Method: Full-thickness tail skin was aseptically harvested from adult C57BL/6 mice.
The skin allografts were transplanted onto the flank of adult recipient BALB/c mice.
Engrafted mice were administered LLDT-8 daily or, as a control, phosphate-buffered saline (PBS) by intraperitoneal (i.p.) injection.

Question: How did the IC50 [1] turn out when CC(C)[C@]12O[C@H]1[C@@H]1O[C@]13[C@]1(O[C@H]1C[C@@]1(O)C4=C(CC[C@]31C)C(=O)OC4)[C@@H]2O [LLDT-8, (5R)-5-hydroxytriptolide] was run?
Answer: 350 nM

Question: And the “IFN-γ production by lymphocytes stimulated with Sac, Mean Value” (shortened to “IFN-γ production”) ([2]; 0.01 nM)?
Answer: 809.7 pg/mL

Question: What about the “IFN-γ production” value ([2]; 0.1 nM) of the same compound?
Answer: 850.5 pg/mL

Question: And the “IL-12 production by lymphocytes stimulated with Sac” value (“IL-12 production” below) ([2]; 0.3 nM)?
Answer: 917 pg/mL

Question: What about the “IL-6 production by lymphocytes stimulated with Sac” value (from here on “IL-6 production”) ([2]; 0.3 nM) of the same compound?
Answer: 1585 pg/mL

Question: And the “IL-10 production by lymphocytes stimulated with Sac” value (from here on “IL-10 production”) ([2]; 0.3 nM)?
Answer: 2866 pg/mL

Question: And the “TNF-α production by lymphocytes stimulated with Sac” value (shortened to “TNF-α production”) ([2]; 0.3 nM)?
Answer: 4686 pg/mL

Question: What about the “IFN-γ production” value ([2]; 1 nM) of the same compound?
Answer: 810.3 pg/mL

Question: What about the “IL-12 production” value ([2]; 3 nM) of the same compound?
Answer: 939 pg/mL

Question: And the “IL-6 production” value ([2]; 3 nM)?
Answer: 1403 pg/mL

Question: And the “IL-10 production” value ([2]; 3 nM)?
Answer: 2816 pg/mL

Question: What about the “TNF-α production” value ([2]; 3 nM) of the same compound?
Answer: 3899 pg/mL

Question: And the “IFN-γ production” value ([2]; 10 nM)?
Answer: 465.3 pg/mL

Question: What about the “IL-12 production” value ([2]; 30 nM) of the same compound?
Answer: 602 pg/mL

Question: And the “IL-6 production” value ([2]; 30 nM)?
Answer: 989 pg/mL

Question: What about the “IL-10 production” value ([2]; 30 nM) of the same compound?
Answer: 3262 pg/mL

Question: What about the “TNF-α production” value ([2]; 30 nM) of the same compound?
Answer: 3649 pg/mL

Question: What about the “IFN-γ production” value ([2]; 100 nM) of the same compound?
Answer: 227.4 pg/mL

Question: And the IC50 [3]?
Answer: 480 nM

Question: What about the “LD50 95% confidence limits” value ([4]; mice) of the same compound?
Answer: 5.4 to 8.4 mg/kg

Question: What about the LD50 ([4]; mice, 14 days, Bliss' method) of the same compound?
Answer: 6.8 mg/kg

Question: What about the “gross pathology (hemorrhage)” value [4] of the same compound?
Answer: Obvious hemorrhage was seen at pylorus, duodenum, jejunum and ileum

Question: What about the “pathological changes in tissues by gross necropsy in survivors at day 15” value [4] of the same compound?
Answer: No significant pathological changes

Question: What about the “ED50 (MLR response)” value ([5]; C57BL/6 against Balb/c) of the same compound?
Answer: 0.6 ng/mL (≈ 1.59 nM)

Question: What about the EC50 ([5]; C57BL/6 against Balb/c, read-out: ED50 (MLR response)) of the same compound?
Answer: 1.6 nM

Question: What about the “potency higher than CsA (MLR)” value ([5]; compared with CsA) of the same compound?
Answer: about 2.5 fold

Question: What about the “suppressive effect on CIA at lower doses” value ([6]; 0.2 and 0.04 mg/Kg/d, dose-dependent) of the same compound?
Answer: Suppressive effect was also observed

Question: What about the “Anti-collagen specific antibody levels” value ([6]; compared with untreated CIA mice) of the same compound?
Answer: reduced dose-dependently

Question: What about the “severity and incidence of CIA” value ([6]; i.p. 1 mg/Kg/d, compared with untreated CIA mice) of the same compound?
Answer: effectively reduced severity and incidence of CIA

Question: What about the “QHS OD value” ([7]; Table 11, i.p. 4 times, dosage 0.04 mg/kg, control 0.208) of the same compound?
Answer: 0.175

Question: What about the C3 ([7]; Table 11, i.p. 4 times, dosage 0.04 mg/kg, control 16.8) of the same compound?
Answer: 19.5 μg/10 μl

Question: And the Body weight ([7]; Table 11, i.p. 4 times, dosage 0.04 mg/kg, control 23.5)?
Answer: 23.0 g

Question: And the Thymus ([7]; Table 11, i.p. 4 times, dosage 0.04 mg/kg, control 39.6)?
Answer: 32.1 mg

Question: And the Spleen ([7]; Table 11, i.p. 4 times, dosage 0.04 mg/kg, control 66.4)?
Answer: 74.8 mg/10 g

Question: And the “Total IgG” value ([7]; Table 11, i.p. 4 times, dosage 0.04 mg/kg, control 185.5)?
Answer: 176.6 μg/10 μl

Question: What about the “QHS OD value” ([7]; Table 11, i.p. 4 times, dosage 0.2 mg/kg, control 0.208) of the same compound?
Answer: 0.162

Question: And the C3 ([7]; Table 11, i.p. 4 times, dosage 0.2 mg/kg, control 16.8)?
Answer: 19.7 μg/10 μl

Question: And the Body weight ([7]; Table 11, i.p. 4 times, dosage 0.2 mg/kg, control 23.5)?
Answer: 23.1 g

Question: And the Thymus ([7]; Table 11, i.p. 4 times, dosage 0.2 mg/kg, control 39.6)?
Answer: 36.9 mg

Question: What about the Spleen ([7]; Table 11, i.p. 4 times, dosage 0.2 mg/kg, control 66.4) of the same compound?
Answer: 76.3 mg/10 g

Question: And the “Total IgG” value ([7]; Table 11, i.p. 4 times, dosage 0.2 mg/kg, control 185.5)?
Answer: 165.9 μg/10 μl

Question: What about the “QHS OD value” ([7]; Table 11, i.p. 4 times, dosage 1 mg/kg, control 0.208) of the same compound?
Answer: 0.158

Question: What about the C3 ([7]; Table 11, i.p. 4 times, dosage 1 mg/kg, control 16.8) of the same compound?
Answer: 19.4 μg/10 μl

Question: What about the Body weight ([7]; Table 11, i.p. 4 times, dosage 1 mg/kg, control 23.5) of the same compound?
Answer: 22.3 g

Question: What about the Thymus ([7]; Table 11, i.p. 4 times, dosage 1 mg/kg, control 39.6) of the same compound?
Answer: 36.6 mg

Question: And the Spleen ([7]; Table 11, i.p. 4 times, dosage 1 mg/kg, control 66.4)?
Answer: 59.6 mg/10 g

Question: And the “Total IgG” value ([7]; Table 11, i.p. 4 times, dosage 1 mg/kg, control 185.5)?
Answer: 182.9 μg/10 μl

Question: What about the “QHS OD value” ([7]; Table 12, p.o. 4 times, dosage 0.04 mg/kg, control 0.38) of the same compound?
Answer: 0.23

Question: What about the C3 ([7]; Table 12, p.o. 4 times, dosage 0.04 mg/kg, control 7.9) of the same compound?
Answer: 6.7 μg/10 μl

Question: And the Body weight ([7]; Table 12, p.o. 4 times, dosage 0.04 mg/kg, control 23.4)?
Answer: 23.0 g

Question: And the Thymus ([7]; Table 12, p.o. 4 times, dosage 0.04 mg/kg, control 28.8)?
Answer: 28.7 mg

Question: And the Spleen ([7]; Table 12, p.o. 4 times, dosage 0.04 mg/kg, control 55.7)?
Answer: 69.0 mg/10 g

Question: What about the “Total IgG” value ([7]; Table 12, p.o. 4 times, dosage 0.04 mg/kg, control 117) of the same compound?
Answer: 123 μg/10 μl

Question: And the “QHS OD value” ([7]; Table 12, p.o. 4 times, dosage 0.2 mg/kg, control 0.38)?
Answer: 0.34

Question: And the C3 ([7]; Table 12, p.o. 4 times, dosage 0.2 mg/kg, control 7.9)?
Answer: 7.9 μg/10 μl

Question: And the Body weight ([7]; Table 12, p.o. 4 times, dosage 0.2 mg/kg, control 23.4)?
Answer: 24.0 g

Question: What about the Thymus ([7]; Table 12, p.o. 4 times, dosage 0.2 mg/kg, control 28.8) of the same compound?
Answer: 36.6 mg

Question: And the Spleen ([7]; Table 12, p.o. 4 times, dosage 0.2 mg/kg, control 55.7)?
Answer: 61.6 mg/10 g

Question: And the “Total IgG” value ([7]; Table 12, p.o. 4 times, dosage 0.2 mg/kg, control 117)?
Answer: 116 μg/10 μl

Question: And the “QHS OD value” ([7]; Table 12, p.o. 4 times, dosage 1 mg/kg, control 0.38)?
Answer: 0.24

Question: What about the C3 ([7]; Table 12, p.o. 4 times, dosage 1 mg/kg, control 7.9) of the same compound?
Answer: 6.8 μg/10 μl

Question: What about the Body weight ([7]; Table 12, p.o. 4 times, dosage 1 mg/kg, control 23.4) of the same compound?
Answer: 23.0 g

Question: And the Thymus ([7]; Table 12, p.o. 4 times, dosage 1 mg/kg, control 28.8)?
Answer: 32.5 mg

Question: What about the Spleen ([7]; Table 12, p.o. 4 times, dosage 1 mg/kg, control 55.7) of the same compound?
Answer: 63.7 mg/10 g

Question: And the “Total IgG” value ([7]; Table 12, p.o. 4 times, dosage 1 mg/kg, control 117)?
Answer: 118 μg/10 μl

Question: And the “LD50 95% confidence limits” value ([8]; mice)?
Answer: 7.7 to 11.3 mg/kg

Question: And the LD50 ([8]; mice, 14 days, Bliss' method)?
Answer: 9.3 mg/kg

Question: What about the “pathological changes in tissues by gross necropsy in survivors at day 15” value [8] of the same compound?
Answer: No significant pathological changes

Question: What about the murine allograft survival [9] of the same compound?
Answer: prolonged murine allograft survival
